Data: the NIST ThermoML archive (doi:10.1016/j.fluid.2007.06.012)
Numbers after ± are expanded uncertainties.

Settings: Liquid, Closed cell (Static) method

## FC(F)(F)C(F)(F)F [hexafluoroethane]
243.33 K
  vapor or sublimation pressure: 769 ± 3 kPa
245.32 K
  vapor or sublimation pressure: 816 ± 3 kPa
249.31 K
  vapor or sublimation pressure: 928 ± 3 kPa
253.29 K
  vapor or sublimation pressure: 1048 ± 3 kPa
257.31 K
  vapor or sublimation pressure: 1183 ± 4 kPa
261.29 K
  vapor or sublimation pressure: 1328 ± 4 kPa
265.28 K
  vapor or sublimation pressure: 1489 ± 4 kPa
269.27 K
  vapor or sublimation pressure: 1659 ± 4 kPa
273.27 K
  vapor or sublimation pressure: 1847 ± 4 kPa
277.24 K
  vapor or sublimation pressure: 2050 ± 4 kPa
281.23 K
  vapor or sublimation pressure: 2270 ± 5 kPa
283.23 K
  vapor or sublimation pressure: 2387 ± 5 kPa
285.23 K
  vapor or sublimation pressure: 2509 ± 5 kPa
287.22 K
  vapor or sublimation pressure: 2636 ± 5 kPa
289.22 K
  vapor or sublimation pressure: 2769 ± 5 kPa
290.23 K
  vapor or sublimation pressure: 2839 ± 5 kPa
290.72 K
  vapor or sublimation pressure: 2873 ± 5 kPa
291.22 K
  vapor or sublimation pressure: 2909 ± 5 kPa
291.72 K
  vapor or sublimation pressure: 2946 ± 5 kPa
292.22 K
  vapor or sublimation pressure: 2982 ± 5 kPa
